Results: patent EP2818471A1, “Nitrogen bicyclic compounds as inhibitors for Scyl1 and Grk5” (Max-Planck-Gesellschaft zur Förderung der Wissenschaften …, priority 2013, dated 2014)

Columns and labels:
GRK5 = molecular target: T1, GRK5 (Homo sapiens, UniProt P34947); assay: GRK5 radiometric filtration binding assay (Millipore KinaseProfiler); format: biochemical; details: Table 6
T1 construct: purchased Millipore (KinaseProfiler service)
Description: As alternative, IC50 values are determined by a radiometric based filtration binding assay, namely Millipore KinaseProfiler™. GRK5 is incubated with 8 mM MOPS pH7.0, 0.2 mM EDTA, 2 mg/mL casein, 10 mM MgAcetate and […] (specific activity approx. 500 cpm/pmol, concentration as required). The reaction is initiated by the addition of the MgATP mix. After incubation for 40 minutes at room temperature, the reaction is stopped by the addition of 3 % phosphoric acid solution. 10 µL of the reaction is then spotted onto a P30 filtermat and washed three times for 5 minutes in 75 mM phosphoric acid and once in methanol prior to drying and scintillation counting.

full length Grk5 = molecular target: T2, full length Grk5 (Homo sapiens, UniProt P34947); assay: GRK5 kinase activity assay (ADP Glo Kinase Assay); format: biochemical; details: Table 5
T2 construct: 2 µl 6/2 fold concentrated full length Grk5 (Millipore, #14-714) in reaction buffer is added to each well; purchased Millipore 14-714
Description: Increasing concentrations of GRK5 are incubated together with 100 µM ATP in the absence and presence of 10 µM casein in a reaction buffer. Within this incubation non-phosphorylated casein is converted into phosphorylated casein and ATP is converted into ADP. Thereafter nonconverted ATP is digested into AMP by addition of the ADP-Glo™Reagent. Subsequently the ADP that is produced by GRK5 activity is phosphorylated back to ATP by addition of Promega Kinase Detection Reagent. These ATP levels serve as measure for the GRK5 activity and are quantified by a luciferase/luciferin reaction.
Km(ATP) was determined by measuring the GRK5 activity at increasing ATP concentrations.
The reaction buffer used was composed of: 20 mM MES pH 6.0, 1 mM DTT, 10 mM MgCl2, 0.01 % Tween20 and the reaction volume was 6µl.
Firstly 4 µl 6/4 fold concentrated substrate and 6/4 fold concentrated ATP in 1 fold concentrated reaction buffer are added to each well of the assay plate. Subsequently 67 nl 1000 fold concentrated test compound in 100 % DMSO are added to each well except to C- and C+ wells using pin tool. Then 67 nl 100 % DMSO are pipetted to C- (no kinase, no compound) and C+ (no compound) wells using pin-tool and 2 µl reaction buffer are added to C- wells. […] Finally, after incubation for 40 min at room temperature the luminescence intensity was measured. […]

beta-TC6 = assay: MTT cytotoxicity assay (cell viability and proliferation); format: cell-based, mouse; details: beta-TC6, 72 h treatment, concentrations up to 10 µM
Description: Using a MTT approach, we determined the effect on cell viability and proliferation of beta-TC6 and C2C12 cells to display potential cytotoxicity of the compounds according to the invention in vitro after a 72 h treatment.
For MTT (3-(4,5-dimethylthiazol-2-yl)-2,5-diphenyl tetrazolium bromide) transformation, 1/5 of total volume of a 5 mg/mL MTT stock solution was added to the cells as well as control wells and incubated at 37 °C, 5 % CO2 (v/v) for 1 h. Then 1/2 of total volume of MTT-stop solution was added and plates were incubated overnight in the dark at 25 °C. The optical density (OD) was measured using a multiwell spectrophotometer at a wavelength of 570 nm.

T1 sequence (P34947 whole entry): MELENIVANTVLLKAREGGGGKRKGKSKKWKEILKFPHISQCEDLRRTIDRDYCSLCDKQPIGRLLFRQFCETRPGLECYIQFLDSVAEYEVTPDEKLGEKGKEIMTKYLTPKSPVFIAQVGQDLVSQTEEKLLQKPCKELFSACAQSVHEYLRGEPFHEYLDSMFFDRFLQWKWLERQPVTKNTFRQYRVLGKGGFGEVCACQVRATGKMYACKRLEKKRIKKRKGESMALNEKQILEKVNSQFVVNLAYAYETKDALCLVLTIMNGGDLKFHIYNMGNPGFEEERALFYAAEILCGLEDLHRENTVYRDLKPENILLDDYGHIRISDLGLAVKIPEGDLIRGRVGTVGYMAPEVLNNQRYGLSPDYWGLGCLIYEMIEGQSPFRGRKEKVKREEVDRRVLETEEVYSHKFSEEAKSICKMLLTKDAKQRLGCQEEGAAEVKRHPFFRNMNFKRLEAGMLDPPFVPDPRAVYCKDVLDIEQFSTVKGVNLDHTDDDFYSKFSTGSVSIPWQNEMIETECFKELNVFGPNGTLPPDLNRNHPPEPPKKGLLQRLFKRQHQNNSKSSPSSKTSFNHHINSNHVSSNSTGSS
T2 sequence (P34947 whole entry): as above

Structure (SMILES) | IC50 (GRK5) [µM] | IC50 (full length Grk5) [µM] | toxic effect (beta-TC6)
NC(=O)c1ccc(-c2cnc3ccc(Cc4ccc(F)cc4)nn23)cc1 [compound 1, 4-[6-[(4-fluorophenyl)methyl]imidazo[1,2-b]pyridazin-3-yl]benzamide] | 5 to 20 | 20 to 80 | 
COc1cc(-c2ccc3ncc(-c4cccnc4)n3n2)cc(OC)c1OC [compound 10, 3-(3-pyridyl)-6-(3,4,5-trimethoxyphenyl)imidazo[1,2-b]pyridazine] |  |  | no toxic effect at all
